According to US20260092071A1, “COMPOUNDS AND COMPOSITIONS AS SMARCA2/4 DEGRADERS AND USES THEREOF” (REGENTS OF THE UNIVERSITY OF MICHIGAN, priority 2022, published 2026):

How the values were obtained:
SMARCA2 = SMARCA2 (Homo sapiens, UniProt P51531); test: HiBit assay in engineered HT1080 CRISPR knock-in cell, 6 hrs (B series), SMARCA2; type: cell-based; conditions: 6 hrs incubation; for DC50: read-out: SMARC A2 HT1080 HiBit DC50; for Dmax: HT-1080, HT1080 CRISPR knock-in cells, read-out: SMARC A2 HT1080 HiBit Dmax (%)
In short: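 HT1080 CRISPR knock-in cells carrying the HiBiT tag were seeded onto compounds (final DMSO 0.1%) and incubated 6 hrs at 37° C, 5% CO2. Remaining tagged protein was detected by lytic HiBiT luminescence after adding LgBiT protein and substrate, with LgBiT-free wells serving as negative control.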

SMARCA4 = SMARCA4 (Homo sapiens, UniProt P51532); test: HiBit assay in engineered HT1080 CRISPR knock-in cell, 6 hrs (B series), SMARCA4; type: cell-based; conditions: 6 hrs incubation; for DC50: read-out: SMARC A4 HT1080 HiBit DC50; for Dmax: HT-1080, HT1080 CRISPR knock-in cells, read-out: SMARC A4 HT1080 HiBit Dmax(%)
In short: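 Protein abundance is measured in HiBiT-tagged HT1080 CRISPR knock-in cells after a 6 hr compound treatment (0.1% DMSO) by lytic Nano-Glo HiBiT luminescence.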

Chain of SMARCA4 (P51532 whole entry): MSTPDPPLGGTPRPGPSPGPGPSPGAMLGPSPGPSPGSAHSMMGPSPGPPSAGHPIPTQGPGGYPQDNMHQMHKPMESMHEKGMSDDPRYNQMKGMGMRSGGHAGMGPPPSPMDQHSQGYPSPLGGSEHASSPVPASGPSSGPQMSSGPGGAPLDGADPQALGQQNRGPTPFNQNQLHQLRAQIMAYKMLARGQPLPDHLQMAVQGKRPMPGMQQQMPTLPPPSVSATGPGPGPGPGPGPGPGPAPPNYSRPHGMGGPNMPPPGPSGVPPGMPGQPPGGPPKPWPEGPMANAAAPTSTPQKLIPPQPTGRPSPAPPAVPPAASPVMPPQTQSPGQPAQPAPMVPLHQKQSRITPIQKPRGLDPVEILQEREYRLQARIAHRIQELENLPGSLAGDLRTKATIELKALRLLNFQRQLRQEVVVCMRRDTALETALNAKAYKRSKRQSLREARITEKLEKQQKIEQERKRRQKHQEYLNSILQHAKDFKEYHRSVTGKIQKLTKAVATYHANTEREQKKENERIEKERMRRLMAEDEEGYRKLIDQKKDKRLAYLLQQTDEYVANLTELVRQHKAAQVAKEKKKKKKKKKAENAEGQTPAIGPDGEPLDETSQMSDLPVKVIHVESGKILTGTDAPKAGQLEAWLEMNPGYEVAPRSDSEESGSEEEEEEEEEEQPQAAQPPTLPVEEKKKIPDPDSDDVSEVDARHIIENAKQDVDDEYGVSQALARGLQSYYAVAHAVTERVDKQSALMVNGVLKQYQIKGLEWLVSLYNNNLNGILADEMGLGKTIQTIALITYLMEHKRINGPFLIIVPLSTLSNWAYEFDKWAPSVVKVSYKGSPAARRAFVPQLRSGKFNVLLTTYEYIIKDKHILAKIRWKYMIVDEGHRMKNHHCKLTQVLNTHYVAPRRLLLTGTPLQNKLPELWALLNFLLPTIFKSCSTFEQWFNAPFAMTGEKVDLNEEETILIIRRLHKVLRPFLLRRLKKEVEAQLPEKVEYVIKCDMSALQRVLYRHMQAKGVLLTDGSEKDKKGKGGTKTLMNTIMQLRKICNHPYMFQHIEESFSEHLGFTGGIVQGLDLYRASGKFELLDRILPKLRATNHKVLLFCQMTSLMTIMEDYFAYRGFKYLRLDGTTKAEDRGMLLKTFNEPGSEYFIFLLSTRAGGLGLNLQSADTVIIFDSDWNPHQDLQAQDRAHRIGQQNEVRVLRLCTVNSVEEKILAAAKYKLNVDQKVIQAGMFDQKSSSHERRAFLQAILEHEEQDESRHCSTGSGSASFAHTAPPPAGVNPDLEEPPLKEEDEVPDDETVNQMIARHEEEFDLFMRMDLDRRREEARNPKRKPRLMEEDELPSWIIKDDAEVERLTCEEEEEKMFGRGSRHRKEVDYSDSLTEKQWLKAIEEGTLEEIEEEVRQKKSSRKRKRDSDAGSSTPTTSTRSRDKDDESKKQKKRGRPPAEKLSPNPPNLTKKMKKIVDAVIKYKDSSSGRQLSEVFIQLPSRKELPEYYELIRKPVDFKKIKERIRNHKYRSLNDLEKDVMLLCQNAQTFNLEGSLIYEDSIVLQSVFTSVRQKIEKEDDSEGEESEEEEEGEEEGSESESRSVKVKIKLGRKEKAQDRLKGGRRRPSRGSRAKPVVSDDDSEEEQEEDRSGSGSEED
Chain of SMARCA2 (P51531 whole entry): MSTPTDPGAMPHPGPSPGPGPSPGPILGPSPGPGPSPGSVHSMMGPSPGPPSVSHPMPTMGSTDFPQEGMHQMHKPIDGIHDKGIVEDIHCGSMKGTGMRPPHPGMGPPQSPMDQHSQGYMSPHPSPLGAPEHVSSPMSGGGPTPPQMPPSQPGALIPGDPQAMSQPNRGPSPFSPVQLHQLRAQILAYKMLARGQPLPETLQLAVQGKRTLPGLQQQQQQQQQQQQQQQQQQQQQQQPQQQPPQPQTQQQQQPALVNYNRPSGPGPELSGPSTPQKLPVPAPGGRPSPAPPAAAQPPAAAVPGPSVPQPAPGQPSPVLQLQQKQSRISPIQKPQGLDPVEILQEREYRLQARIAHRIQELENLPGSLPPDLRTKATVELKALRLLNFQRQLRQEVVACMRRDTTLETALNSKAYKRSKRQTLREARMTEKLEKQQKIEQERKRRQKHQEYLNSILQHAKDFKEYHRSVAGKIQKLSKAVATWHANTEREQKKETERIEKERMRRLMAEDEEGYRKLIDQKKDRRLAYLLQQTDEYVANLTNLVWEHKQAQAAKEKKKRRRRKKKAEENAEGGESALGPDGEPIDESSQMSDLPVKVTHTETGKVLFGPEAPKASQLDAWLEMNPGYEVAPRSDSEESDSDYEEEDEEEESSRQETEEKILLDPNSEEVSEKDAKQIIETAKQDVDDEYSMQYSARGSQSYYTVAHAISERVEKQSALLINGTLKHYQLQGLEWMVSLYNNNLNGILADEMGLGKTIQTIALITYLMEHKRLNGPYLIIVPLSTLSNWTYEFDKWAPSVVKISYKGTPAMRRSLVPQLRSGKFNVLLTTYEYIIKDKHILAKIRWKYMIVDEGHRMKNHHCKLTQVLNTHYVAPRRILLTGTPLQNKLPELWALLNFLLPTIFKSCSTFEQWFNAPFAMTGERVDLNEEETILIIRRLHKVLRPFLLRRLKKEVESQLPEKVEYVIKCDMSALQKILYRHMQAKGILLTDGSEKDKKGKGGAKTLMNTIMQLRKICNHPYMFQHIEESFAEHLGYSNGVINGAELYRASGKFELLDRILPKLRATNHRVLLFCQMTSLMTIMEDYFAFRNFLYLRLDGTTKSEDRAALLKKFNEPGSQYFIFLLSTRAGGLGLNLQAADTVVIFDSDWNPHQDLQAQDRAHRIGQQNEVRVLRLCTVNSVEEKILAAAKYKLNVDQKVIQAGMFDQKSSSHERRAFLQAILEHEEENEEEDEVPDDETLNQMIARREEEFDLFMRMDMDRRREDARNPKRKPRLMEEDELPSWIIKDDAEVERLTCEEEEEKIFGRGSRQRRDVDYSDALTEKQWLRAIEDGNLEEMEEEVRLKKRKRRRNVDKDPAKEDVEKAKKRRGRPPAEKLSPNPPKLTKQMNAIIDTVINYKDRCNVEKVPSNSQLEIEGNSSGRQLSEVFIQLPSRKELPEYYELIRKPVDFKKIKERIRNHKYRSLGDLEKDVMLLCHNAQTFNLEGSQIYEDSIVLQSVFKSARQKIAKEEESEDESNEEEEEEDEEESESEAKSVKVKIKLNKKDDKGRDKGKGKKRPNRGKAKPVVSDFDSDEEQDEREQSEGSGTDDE

Row | DC50 (SMARCA2; HT1080 CRISPR knock-in cells) [nM] | Dmax (SMARCA2) [%] | DC50 (SMARCA4; HT1080 CRISPR knock-in cells) [nM] | Dmax (SMARCA4) [%] | SMARC A2 HT1080 HiBit Dmax (%) (SMARCA2; HT1080 CRISPR knock-in cells) | SMARC A4 HT1080 HiBit Dmax(%) (SMARCA4; HT1080 CRISPR knock-in cells) | Structure (SMILES)
1 | < 100 | > 90 | < 100 | > 90 |  |  | Cc1ncsc1-c1ccc([C@H](C)NC(=O)[C@@H]2C[C@@H](O)CN2C(=O)[C@@H](NC(=O)CN2CCC(c3ccc4c(c3)C(C)(C)c3nc(=O)c5c(Br)cccc5n3-4)CC2)C(C)(C)C)cc1 [Compound B5, (2S,4R)-1-((S)-2-(2-(4-(4-bromo-7,7-dimethyl-5-oxo-5,7-dihydroindolo[1,2-a]quinazolin-9-yl)piperidin-1-yl)acetamido)-3,3-dimethylbutanoyl)-4-hydroxy-N—((S)-1-(4-(4-methylthiazol-5-yl)phenyl)ethyl)pyrrolidine-2-carboxamide]
2 | 100 to 500 | 70 to 90 | 100 to 500 | < 50 |  |  | Cc1ncsc1-c1ccc2c(c1)CC[C@H]2NC(=O)[C@@H]1C[C@@H](O)CN1C(=O)[C@@H](n1cc([C@H]2CC[C@H](CN3CCC(c4ccc5c(c4)-n4c(nc(=O)c6c(Cl)cccc64)C5(C)C)CC3)CC2)nn1)C(C)(C)C [Compound B122, (2S,4R)-1-((S)-2-(4-((1r,4S)-4-((4-(4-chloro-7,7-dimethyl-5-oxo-5,7-dihydroindolo[1,2-a]quinazolin-10-yl)piperidin-1-yl)methyl)cyclohexyl)-1H-1,2,3-triazol-1-yl)-3,3-dimethylbutanoyl)-4-hydroxy-N-((R)-5-(4-methylthiazol-5-yl)-2,3-dihydro-1H-inden-1-yl)pyrrolidine-2-carboxamide]
3 | < 100 | 50 to 69 | 100 to 500 | < 50 |  |  | Cc1cc(C(C(=O)N2C[C@H](O)C[C@H]2C(=O)N[C@@H](C)c2ccc(-c3scnc3C#CCN3CCC(c4cccc5c4C(C)(C)c4nc(=O)c6c(Cl)cccc6n4-5)CC3)cc2)C(C)C)on1 (stereo partly drawn) [Compound B150, (2S,4R)-N-((S)-1-(4-(4-(3-(4-(4-chloro-7,7-dimethyl-5-oxo-5,7-dihydroindolo[1,2-a]quinazolin-8-yl)piperidin-1-yl)prop-1-yn-1-yl)thiazol-5-yl)phenyl)ethyl)-4-hydroxy-1-(3-methyl-2-(3-methylisoxazol-5-yl)butanoyl)pyrrolidine-2-carboxamide]
4 | < 100 | > 90 | 100 to 500 | 70 to 90 |  |  | Cc1nc(C)c(-c2ccc([C@H](C)NC(=O)[C@@H]3C[C@@H](O)CN3C(=O)[C@@H](n3cc([C@H]4CC[C@H](CN5CCN(c6ccc7c(c6)-n6c(nc(=O)c8c(Cl)cccc86)C76CCCCC6)CC5)CC4)nn3)C(C)(C)C)cc2)s1 [Compound B168, (2S,4R)-1-((S)-2-(4-((1,4S)-4-((4-(4′-chloro-5′-oxo-5′H-spiro[cyclohexane-1,7′-indolo[1,2-a]quinazolin]-10′-yl)piperazin-1-yl)methyl)cyclohexyl)-1H-1,2,3-triazol-1-yl)-3,3-dimethylbutanoyl)-N-((S)-1-(4-(2,4-dimethylthiazol-5-yl)phenyl)ethyl)-4-hydroxypyrrolidine-2-carboxamide]
5 | < 100 | > 90 | < 100 | > 90 |  |  | Cc1ncsc1-c1ccc([C@H](CN2CCOCC2)NC(=O)[C@@H]2C[C@@H](O)CN2C(=O)[C@H](C(C)C)n2cc([C@H]3CC[C@H](CN4CCC(c5ccc6c(c5)-n5c(nc(=O)c7c(Br)cccc75)C65CCCCC5)CC4)CC3)nn2)cc1 [Compound B106, (2S,4R)-1-((S)-2-(4-((1r,4S)-4-((4-(4′-bromo-5′-oxo-5′H-spiro[cyclohexane-1,7′-indolo[1,2-a]quinazolin]-10′-yl)piperidin-1-yl)methyl)cyclohexyl)-1H-1,2,3-triazol-1-yl)-3-methylbutanoyl)-4-hydroxy-N-((R)-1-(4-(4-methylthiazol-5-yl)phenyl)-2-morpholinoethyl)pyrrolidine-2-carboxamide]
6 | < 100 | 70 to 90 | 501 to 1000 | 50 to 69 |  |  | Cc1ncsc1-c1ccc([C@H](CN2CCOCC2)NC(=O)[C@@H]2C[C@@H](O)CN2C(=O)[C@@H](n2cc([C@H]3CC[C@H](S(=O)(=O)N4CCC(c5ccc6c(c5)-n5c(nc(=O)c7c(Cl)cccc75)C65CCCCC5)CC4)CC3)nn2)C(C)(C)C)cc1 [Compound B118, (2S,4R)-1-((S)-2-(4-((1r,4S)-4-((4-(4′-chloro-5′-oxo-5′H-spiro[cyclohexane-1,7′-indolo[1,2-a]quinazolin]-10′-yl)piperidin-1-yl)sulfonyl)cyclohexyl)-1H-1,2,3-triazol-1-yl)-3,3-dimethylbutanoyl)-4-hydroxy-N-((R)-1-(4-(4-methylthiazol-5-yl)phenyl)-2-morpholinoethyl)pyrrolidine-2-carboxamide]
7 | 100 to 500 | 70 to 90 | > 1000 | < 50 |  |  | Cc1ncsc1-c1ccc([C@H](C)NC(=O)[C@@H]2C[C@@H](O)CN2C(=O)[C@@H](NC(=O)CCCCN2CCC(c3ccc4c(c3)-n3c(nc(=O)c5c(Cl)cccc53)C4(C)C)CC2)C(C)(C)C)cc1 [Compound B50, (2S,4R)-1-((S)-2-(5-(4-(4-chloro-7,7-dimethyl-5-oxo-5,7-dihydroindolo[1,2-a]quinazolin-10-yl)piperidin-1-yl)pentanamido)-3,3-dimethylbutanoyl)-4-hydroxy-N-((S)-1-(4-(4-methylthiazol-5-yl)phenyl)ethyl)pyrrolidine-2-carboxamide]
8 | < 100 |  | < 100 |  | A (A (>90% degradation)) | B (B (70-90% degradation)) | Cc1cc(C(C(=O)N2C[C@H](O)C[C@H]2C(=O)N[C@@H](CN2CCC(c3cccc4c3C(C)(C)c3nc(=O)c5c(Cl)cccc5n3-4)CC2)c2ccc(-c3scnc3C)cc2)C(C)C)on1 (stereo partly drawn) [Compound B154, (2S,4R)-N-((R)-2-(4-(4-chloro-7,7-dimethyl-5-oxo-5,7-dihydroindolo[1,2-a]quinazolin-8-yl)piperidin-1-yl)-1-(4-(4-methylthiazol-5-yl)phenyl)ethyl)-4-hydroxy-1-(3-methyl-2-(3-methylisoxazol-5-yl)butanoyl)pyrrolidine-2-carboxamide]
9 | 100 to 500 | 70 to 90 | 100 to 500 | 50 to 69 |  |  | Cc1cc(C(C(=O)N2C[C@H](O)C[C@H]2C(=O)N[C@@H](C)c2ccc(-c3scnc3C#CCOCCCN3CCC(c4cccc5c4C(C)(C)c4nc(=O)c6c(Cl)cccc6n4-5)CC3)cc2)C(C)C)on1 (stereo partly drawn) [Compound B145, (2S,4R)-N-((S)-1-(4-(4-(3-(3-(4-(4-chloro-7,7-dimethyl-5-oxo-5,7-dihydroindolo[1,2-a]quinazolin-8-yl)piperidin-1-yl)propoxy)prop-1-yn-1-yl)thiazol-5-yl)phenyl)ethyl)-4-hydroxy-1-(3-methyl-2-(3-methylisoxazol-5-yl)butanoyl)pyrrolidine-2-carboxamide]
10 | < 100 | > 90 | 100 to 500 | < 50 |  |  | C[C@H](NC(=O)[C@@H]1C[C@@H](O)CN1C(=O)[C@@H](n1cc([C@H]2CC[C@H](CN3CCC(c4ccc5c(c4)-n4c(nc(=O)c6c(Cl)cccc64)C5(C)C)CC3)CC2)nn1)C(C)(C)C)c1ccc(-c2scnc2C#N)cc1 [Compound B141, (2S,4R)-1-((S)-2-(4-((1r,4S)-4-((4-(4-chloro-7,7-dimethyl-5-oxo-5,7-dihydroindolo[1,2-a]quinazolin-10-yl)piperidin-1-yl)methyl)cyclohexyl)-1H-1,2,3-triazol-1-yl)-3,3-dimethylbutanoyl)-N-((S)-1-(4-(4-cyanothiazol-5-yl)phenyl)ethyl)-4-hydroxypyrrolidine-2-carboxamide]
